Experiments:
human recombinant-PDE5 = human recombinant-PDE5 (Homo sapiens, UniProt O76074); experiment: Inhibitory effect on cGMP-PDE (PDE5 IC50, one-step assay); format: biochemical; settings: in vitro, 0.15 μM 8-[H3]-cGMP, 30 min incubation
Description: The compounds of structural formula (I) were tested for an ability to inhibit PDE5. The ability of a compound to inhibit PDE5 activity is related to the IC50 value for the compound, i.e., the concentration of inhibitor required for 50% inhibition of enzyme activity. The IC50 value for compounds of structural formula (I) were determined using recombinant human PDE5.
cGMP-PDE activity of compounds of the present invention was measured using a one-step assay adapted from Wells et al., Biochim. Biophys. Acta, 384, 430 (1975). The reaction medium contained 50 mM Tris-HCl, pH 7.5, 5 mM magnesium acetate, 250 μg/ml 5′-Nucleotidase, 1 mM EGTA, and 0.15 μM 8-[H^3]-cGMP. Unless otherwise indicated, the enzyme used was a human recombinant-PDE5 (ICOS Corp., Bothell, Wash.).
Compounds of the invention were dissolved in DMSO finally present at 2% in the assay.

| Structure (SMILES) | IC50 (human recombinant-PDE5) [nM] | melting point [°C] |
| --- | --- | --- |
| CN1CC(=O)N2[C@H](c3ccc4c(c3)OCO4)c3[nH]c4ccc(O)cc4c3C[C@@H]2C1=O (racemic) [Example 1, (+/−, cis)-6-Benzo[1,3]dioxol-5-yl-10-hydroxy-2-methyl-2,3,6,7,12,12a-hexahydropyrazino[1′,2′:1,6)pyrido[3,4-b]indole-1,4-dione] | 48.1 | 322 to 328 |
| COc1ccc2[nH]c3c(c2c1)C[C@@H]1C(=O)N(C)CC(=O)N1[C@@H]3c1ccc2c(c1)OCO2 (racemic) [Example 2, (trans)-6-(1,3-Benzodioxol-5-yl)-10-methoxy-2-methyl-2,3,6,7,12,12a-hexahydropyrazino[1′,2′:1,6]pyrido[3,4-b]indole-1,4-dione] | 402 | 259 to 261 |
| CN1CC(=O)N2[C@H](c3ccc4c(c3)OCO4)c3[nH]c4cc(-c5ccccc5)ccc4c3C[C@@H]2C1=O (racemic) [Example 4, (+−, cis)-6-Benzo[1,3]dioxol-5-yl-2-methyl-9-phenyl-2,3,6,7,12,12a-hexahydropyrazino[1′,2′:1,6]pyrido[3,4-b]indole-1,4-dione] | 6 | 198 to 208 |
| COC(=O)c1ccc2c3c([nH]c2c1)[C@@H](c1ccc2c(c1)OCO2)N1C(=O)CN(C)C(=O)[C@H]1C3 (racemic) [Example 5, (+−, cis)-6-Benzo[1,3]dioxol-5-yl-2-methyl-1,4-dioxo-1,2,3,6,7,12,12a-octahydropyrazino[1′,2′:1,6]pyrido[3,4-b]indole-9-carboxylic acid methyl ester] | 288 | 294 to 295 |
| CN1CC(=O)N2[C@H](c3ccc4c(c3)OCO4)c3[nH]c4cc(C(=O)O)ccc4c3C[C@H]2C1=O (racemic) [Example 6, (+−,trans)-6-Benzo[1,3]dioxol-5-yl-2-methyl-1,4-dioxo-1,2,3,4,6,7,12,12a-octahydropyrazino[1′,2′:1,6]pyrido[3,4-b]indole-9-carobxylic acid] | 151 | 246 to 252 |
| CN1CC(=O)N2[C@H](c3ccc4c(c3)OCO4)c3[nH]c4cc(C#N)ccc4c3C[C@@H]2C1=O (racemic) [Example 7, (+−, cis)-6-Benzo[1,3]dioxol-5-yl-2-methyl-1,4-dioxo-1,2,3,4,6,7,12,12a-octahydropyrazino[1′,2′:1,6]pyrido[3,4-b]indole-9-carbonitrile] | 7 | 329 to 331 |
| CN1CC(=O)N2[C@H](c3ccc4c(c3)OCO4)c3[nH]c4c(OCc5ccccc5)cccc4c3C[C@@H]2C1=O (racemic) [Example 8, (+−, cis)-6-Benzo[1,3]dioxol-5-yl-8-benzyloxy-2-methyl-2,3,6,7,12,12a-hexahydropyrazino[1′2′:1,6]pyrido[3,4-b]indole-1,4-dione] | 37 | 150 to 161 |
| COc1ccc2c3c([nH]c2c1)[C@@H](c1ccc2c(c1)OCO2)N1C(=O)CN(C)C(=O)[C@H]1C3 [Example 3, (6R,12aR)-6-Benzo[1,3]dioxol-5-yl-9-methoxy-2-methyl-2,3,6,7,12,12a-hexahydropyrazino-[1′,2′:1,6]pyrido[3,4-b]indole-1,4-dione] | 1.2 | 288 to 293 |
